Test results from patent US9034825B2, “Treatment of myocardial injury with humanin analogs” (Albert Einstein College of Medicine of Yeshiva University, priority 2007, dated 2015).
Values joined by “and” are separate entries in the source; they are usually repeats but may differ in a detail not shown here. Equal values may be shown once.

Columns and labels:
Sprague-Dawley rats = assay: ICV infusion with pancreatic insulin clamp or hyperinsulinemic clamp (Example 5); assay type: in vivo, rat; settings: for peripheral glucose infusion rate: ICV, hyperinsulinemic clamp
Method: Studies were conducted with 92 three-month-old male Sprague-Dawley rats (Charles River Laboratories). Rats were housed in individual cages and subjected to a standard light-dark cycle. Rats were prepared for clamps as described in FIG. 15A. Three weeks before the in vivo studies catheters were implanted in the third cerebral ventricle (Muzumdar et al. 2003). One week before clamp experiments, catheters were placed in the right internal jugular vein and left carotid artery (Liu et al. 1998).
A primed-continuous ICV infusion of HN, F6A-HN (total dose of 20 μg), STAT-3 inhibitor (75 pmol) (Buettner et al. 2006), or aCSF was initiated at t=0 and maintained for the remainder of the experiment (FIG. 15A). Pancreatic insulin-clamp studies or euglycemic-hyperinsulinemic clamps were performed in conscious, unrestrained, catheterized mice for last 120 minutes as described previously (Bahar et al. 2006, Muzumdar et al. 2006). In the intra-venous group, HN, F6A, Colivelin, and HNGF6A were infused intravenously and hyperinsulinemic clamps were performed as described previously (Loeb et al. 2005). Estimation of glucose, glucose fluxes, insulin, FFA were done as described previously (Loeb et al. 2005). HN measurements were performed by an in-house, ELISA utilizing affinity purified humanin antibodies that recognize both human and rat humanin and has a limit of detection of 0.1 ng/ml (Hwang, and Cohen personal communication).

[1] = tested on: Glc-6-Pase mRNA in the liver; assay: Hepatic Glc-6-Pase mRNA by qRT-PCR at end of clamp after ICV infusion; assay type: in vivo, rat; settings: ICV infusion for 6 h
Method: (§1) Total RNA was extracted following Clontech's protocol. First-stranded cDNA was synthesized from 1 μg of total RNA using Superscript III (Gibco, Gaithersburg, Md.). Hepatic glucose-6-phosphatase (Glc-6-Pase) and phosphoenolpyruvate carboxykinase (PEPCK) mRNA abundance were assessed by qRT-PCR as described previously (Buettner et al., 2005). Quantification of these peptides and their copy number was normalized for GAPDH and 18S to correct for loading irregularities. The data presented are those normalized by GAPDH.

3T3L1 adipocytes = assay: Glucose transport in 3T3L1 adipocytes; assay type: cell-based; settings: 3T3L1 cells, basal and insulin-stimulated
Excerpt: Using the 3T3L1 adipocyte model, the effects of humanin on insulin action and glucose transport were investigated.

PEPCK mRNA in the liver = assay: Hepatic PEPCK mRNA by qRT-PCR at end of clamp after ICV infusion; assay type: in vivo, rat; settings: ICV infusion for 6 h
Method: as §1

[2] = tested on: pAKT and pSTAT-3 in hepatocytes; assay: Western blot of Phospho-STAT3 and Phospho-AKT in primary hepatocytes; assay type: cell-based, rat
Method: Single-cell suspensions of hepatocytes were obtained from perfusions of Sprague-Dawley rats using the procedure of Berry and Friend (1969) and the perfusion mixture of Leffert et al (1979). Hepatocyte glucose production was estimated after a 24 hr treatment with HN, F6A and saline as described before (Berg et al. 2001). In a separate set of experiment, hepatocytes were lysed, and protein extracted in RIPA lysis buffer at 30, 60 and 360 min post treatment with FIN, F6A and saline. The cell lysates were then subject to western blotting for Phospho-STAT3 (Tyr705), total-STAT3, Phospho-AKT (Ser473), and total-AKT expression (antibodies purchased from Cell Signaling, #9131, #9132, #9271, #9272).

| expression of G-6Pase in the liver, ratio to GAPDH ([1]; end of clamp (Example 1)) | serum concentrations of HN during ICV infusion (Sprague-Dawley rats; ICV infusion) | pAKT or pSTAT-3 in hepatocytes [2] | expression of G-6Pase in the liver, ratio to GAPDH ([1]; end of clamp (Example 2), listed as HN) | Molecule | peripheral glucose infusion rate (Sprague-Dawley rats) | glucose transport (3T3L1 adipocytes) | PEPCK mRNA in the liver, ratio to GAPDH (PEPCK mRNA in the liver; end of clamp (Example 1)) | hepatic glucose output (Sprague-Dawley rats; ICV HN 0.1 μg/kg/min, basal and high insulin clamp) | PEPCK mRNA in the liver, ratio to GAPDH (PEPCK mRNA in the liver; end of clamp (Example 2)) |
| --- | --- | --- | --- | --- | --- | --- | --- | --- | --- |
| no changes |  |  |  | IGFBP-3: non glycosylated hIGFBP-3 (IGF binding protein-3), provided by Celtrix | decrease | inhibited insulin-stimulated glucose transport | 3.2 ±0.3 |  |  |
|  | undetectable | did not elicit significant changes | 0.87 ±0.37 and 0.89 ±0.28 | CC[C@H](C)[C@H](NC(=O)[C@H](CCC(=O)O)NC(=O)[C@H](CO)NC(=O)[C@@H](NC(=O)[C@H](CC(C)C)NC(=O)[C@H](CC(C)C)NC(=O)[C@H](CC(C)C)NC(=O)[C@H](CC(C)C)NC(=O)[C@H](CS)NC(=O)[C@H](CO)NC(=O)[C@H](Cc1ccccc1)NC(=O)CNC(=O)[C@H](CCCNC(=N)N)NC(=O)[C@@H]1CCCN1C(=O)[C@H](C)NC(=O)[C@@H](N)CCSC)[C@@H](C)O)C(=O)N[C@@H](CC(=O)O)C(=O)N[C@@H](CC(C)C)C(=O)N1CCC[C@H]1C(=O)N[C@H](C(=O)N[C@@H](CCCCN)C(=O)N[C@@H](CCCNC(=N)N)C(=O)N[C@@H](CCCNC(=N)N)C(=O)N[C@@H](C)C(=O)O)C(C)C [Humanin, maprgfscll lltseidlpv krra] | increased | significantly enhanced basal as well as insulin-stimulated glucose transport |  | significant decrease in hepatic glucose output | 12.4 ±2.7 |
